Data set [1] relates to aromatase. The following applies: cited from earlier work.
The conditions of data set [2]: for appearance of labeled metabolites in plasma: compared with N-1 (11C-1).
For data set [3], the system named is aromatase. Nature of the data set: PET studies in baboon brain. As to conditions: for brain penetration / uptake in amygdala and preoptic area (PET images): baboon brain; for brain penetration: at 2.5 min; for uptake in amygdala and preoptic area (PET images): images summed 15-90 min after injection.
Data set [4] is described as follows: Measurement of log D. As to conditions: 1-octanol / phosphate buffered saline pH 7.4.
The nature of data set [5]: Measurement of free fraction in plasma. As to conditions: baboon plasma, room temperature, 10 min incubation.

In the case of `Cn1nnc2ccc([C@@H](c3ccc(Cl)cc3)n3cncn3)cc21` [(R)-vorozole], the “activity of enantiomer at aromatase” value in data set [1] is “inactive”.
Usually Log D stands for the decadic logarithm of the distribution of all forms, ionised or not, between an organic phase and buffer at a given pH. Low readings indicate lower lipophilicity, high ones higher lipophilicity. In the case of `[11CH3]n1nc2ccc([C@H](c3ccc(Cl)cc3)n3cncn3)cc2n1` [^11C-2], in data set [2] (baboon plasma), the “disappearance of the parent labeled compound from plasma” value was “rapid rate of disappearance” and the “appearance of labeled metabolites in plasma” value was “very rapid appearance of labeled metabolites”. In addition, in data set [3], the brain penetration is 0.02-0.03 %ID/cc; the “uptake in amygdala and preoptic area (PET images)” value was “no specific uptake in amygdala and preoptic area”. In addition, the “Log D at pH 7.4 (n=4)” value in data set [4] is reported as 2.9. Moreover, the “Percent unbound in plasma (n=2)” value in data set [5] is reported as 4.6%.
For the molecule `[11CH3]n1nnc2cc(C(c3ccc(Cl)cc3)n3cncn3)ccc21` (centres unmarked) [^11C-3], the “appearance of labeled metabolites in plasma” value in data set [2] (baboon plasma) is reported as “very rapid appearance of labeled metabolites”. Further, the “area under curve (AUC) in plasma normalized to the injected dose” value in data set [2] (baboon, over 90 minutes) is “similar”. Besides, in data set [3], the brain penetration is 0.02-0.03 %ID/cc; the “uptake in amygdala and preoptic area (PET images)” value was “no specific uptake in amygdala and preoptic area”. Also, the “Log D at pH 7.4 (n=4)” value in data set [4] is listed as 2.5. For the same molecule, the “Percent unbound in plasma (n=2)” value in data set [5] turned out to be 8.1%.
On to `N#Cc1ccc(C(c2ccc(C#N)cc2)n2cncn2)cc1` [letrozole, reference compound], for which, in data set [3] (baboon, blocking dose 0.1 mg/kg, 5 min prior, all brain regions examined), the “effect of pretreatment on [N-methyl-11C]vorozole (11C-1) accumulation in brain” value is reported as “reduced”.

Values taken from article PMC3693459 (Nuclear medicine and biology, 2009).
